These are literature values, as cited in US20150192564A1, “PROFILING REACTIVE OXYGEN, NITROGEN AND HALOGEN SPECIES” (ENZO LIFE SCIENCES, INC., C/O ENZO BIOCHEM, INC, priority 2008, published 2015).

The conditions of this data set: neutral pH and extremes of pH; cited from earlier work.

Molecules are shown by their SMILES.

`Nc1ccc2c(c1N)C(=O)c1ccccc1C2=O` [DAQ, 1,2-diaminoanthraquinone]: the pH stability result is reported as “stable at neutral pH, as well as at extremes of pH”.
